Bounds are passed on as bounds.

For orientation: IC50 means the midpoint of a concentration-inhibition curve. Usually IC90 stands for the point of the concentration-response curve where the effect stands at 90%.

Holding throughout (format): cell-based
Assay [1] relates to PRMT5 (SDMA) in HAP1 MTAP-deleted cell line. The experiment in a line: SDMA in-cell western assay, HAP1 MTAP-deleted cell line. Conditions: for IC50 / IC90: Homo sapiens, SDMA in-cell western, HAP1 MTAP-deleted (MTAP-null) cell line; for Hap1 MTAP intact/deleted ratio: ratio of SDMA in-cell western IC50 in HAP1 MTAP-intact to IC50 in HAP1 MTAP-deleted cell line. The text has this:
(§1) HAP1 MTAP-intact is a cell line in which endogenous levels of MTAP are expressed, and HAP1 MTAP-deleted is an MTAP-null cell line.

For assay [2], the system named is PRMT5 (SDMA) in HAP1 MTAP-intact cell line. The experiment in a line: SDMA in-cell western assay, HAP1 MTAP-intact cell line. The settings on record: Homo sapiens, HAP1 MTAP-intact cell line (endogenous MTAP), read-out: Hap 1 MTAP intact IC50.
Text: as §1

For assay [3], the system named is HAP1 MTAP-deleted cell line. Description: viability assay for the MTAP-deleted cell line. Conditions: Homo sapiens.

Turning to `CCN1C[C@H](c2ccccc2)N(C(=O)C(=O)Nc2cnc(N)c3cn[nH]c23)C[C@H]1C` (racemic) [Compound 162, N-(4-Amino-1H-pyrazolo[4,3-c]pyridin-7-yl)-2-oxo-2-[rac-(2S,5R)-4-ethyl-5-methyl-2-phenyl-piperazin-1-yl]acetamide], the IC50 in assay [1] was < 5 nM; in assay [2] it was > 50 nM; in assay [3], < 100 nM. Further, the “Hap1 MTAP intact/deleted ratio” value in assay [1] was “A (an IC50 ratio greater than or equal to 30 fold)”.
Turning to `Cc1cc(NC(=O)C(=O)N2C[C@@H](C)N(C(=O)C3(C(F)(F)F)CC3)C[C@@H]2c2cccs2)cnc1N` [Compound 111, N-(6-amino-5-methyl-3-pyridyl)-2-[(2R,5R)-5-methyl-2-(2-thienyl)-4-[1-(trifluoromethyl)cyclopropanecarbonyl]piperazin-1-yl]-2-oxo-acetamide], in assay [1], the IC50 is < 5 nM, the IC90 lay in the range of 75 to 125 nM and the “Hap1 MTAP intact/deleted ratio” value was “C (an IC50 ratio of less than 15 fold)”. Besides, the IC50 in assay [2] lay within 5 to 50 nM. Further, the IC50 in assay [3] is < 100 nM.
As to `C[C@@H]1CN(C(=O)C(=O)Nc2cncc3[nH]ncc23)[C@@H](c2ccccc2)CN1C(=O)C(C)(C)C` [Compound 55, 2-((2S,5R)-5-methyl-2-phenyl-4-pivaloylpiperazin-1-yl)-2-oxo-N-(1H-pyrazolo[3,4-c]pyridin-4-yl)acetamide], in assay [1], the IC50 lay in the range of 5 to 50 nM, the IC90 lay within 75 to 125 nM and the “Hap1 MTAP intact/deleted ratio” value is “C (an IC50 ratio of less than 15 fold)”. The IC50 in assay [2] is > 50 nM. In addition, in assay [3], the half-inhibitory concentration (IC50) is < 100 nM.
As for `C[C@@H]1CN(C(=O)C(=O)Nc2cnc(N)c(C3CC3)c2)[C@@H](c2ccc(F)cc2)CN1C(=O)C(C)(C)C` [Compound 152, N-(6-amino-5-cyclopropylpyridin-3-yl)-2-((2S,5R)-2-(4-fluorophenyl)-5-methyl-4-pivaloylpiperazin-1-yl)-2-oxoacetamide], in assay [1], the IC50 is < 5 nM, the IC90 fell in the range of 75 to 125 nM and the “Hap1 MTAP intact/deleted ratio” value is “C (an IC50 ratio of less than 15 fold)”. Also, the half-inhibitory concentration (IC50) in assay [2] lay within 5 to 50 nM. In assay [3], the IC50 is < 100 nM.
As for `CCc1cc(NC(=O)C(=O)N2C[C@@H](C)N(C(=O)C(C)(C)C)C[C@@H]2c2cccc(N3CCN(C)CC3)c2)cnc1N` [Compound 110, N-(6-amino-5-ethylpyridin-3-yl)-2-((2S,5R)-5-methyl-2-(3-(4-methylpiperazin-1-yl)phenyl)-4-pivaloylpiperazin-1-yl)-2-oxoacetamide], the IC50 is < 5 nM in assay [1], < 5 nM in assay [2] and < 100 nM in assay [3]. Further, in assay [1], the IC90 was < 75 nM. Besides, the “Hap1 MTAP intact/deleted ratio” value in assay [1] is listed as “C (an IC50 ratio of less than 15 fold)”.
As for `CCc1cc(NC(=O)C(=O)N2C[C@@H](C)N(C(=O)C3(C(F)(F)F)CC3)C[C@@H]2c2cccc(C(F)(F)F)c2)cnc1N` [Compound 150, N-(6-amino-5-ethylpyridin-3-yl)-2-((2S,5R)-5-methyl-4-(1-(trifluoromethyl)cyclopropanecarbonyl)-2-(3-(trifluoromethyl)phenyl)piperazin-1-yl)-2-oxoacetamide], in assay [1], the half-inhibitory concentration (IC50) lay within 5 to 50 nM, the IC90 was > 125 nM and the “Hap1 MTAP intact/deleted ratio” value was “A (an IC50 ratio greater than or equal to 30 fold)”. Also, the IC50 in assay [2] is > 50 nM. Also, in assay [3], the IC50 is < 100 nM.
Taken in the same sequence, the figures for `Cc1cc(NC(=O)C(=O)N2C[C@@H](C)N(C(=O)OC3(C)CC3)C[C@@H]2c2ccc(F)cc2)cnc1N` [Compound 120] were 5 to 50 nM, 75 to 125 nM, “B (an IC50 ratio greater than or equal to 15 fold but lower than 30 fold)”, > 50 nM and 100 to 1000 nM.
Taken in the same sequence, the figures for `Cc1cc(NC(=O)C(=O)N2C[C@@H](C)N(C(=O)C(C)C)C[C@@H]2c2ccc(F)c(F)c2)cnc1N` [Compound 158, N-(6-amino-5-methylpyridin-3-yl)-2-((2S,5R)-2-(3,4-difluorophenyl)-4-isobutyryl-5-methylpiperazin-1-yl)-2-oxoacetamide] were 5 to 50 nM, > 125 nM, “A (an IC50 ratio greater than or equal to 30 fold)”, > 50 nM and 100 to 1000 nM.
On the same counts, the results for `COc1ncc(NC(=O)C(=O)N2C[C@@H](C)N(C(=O)C3(C(F)(F)F)CC3)C[C@@H]2c2ccc(F)c(Cl)c2)cc1C(N)=O` [Compound 63, 5-(2-((2S,5R)-2-(3-chloro-4-fluorophenyl)-5-methyl-4-(1-(trifluoromethyl)cyclopropanecarbonyl)piperazin-1-yl)-2-oxoacetamido)-2-methoxynicotinamide] are 5 to 50 nM, 75 to 125 nM, “A (an IC50 ratio greater than or equal to 30 fold)”, > 50 nM and 100 to 1000 nM.
In the case of `CC(C)C(=O)N1C[C@@H](c2ccc(F)c(F)c2)N(C(=O)C(=O)Nc2cnc(N)c(C3CC3)c2)C[C@H]1C` [Compound 160, N-(6-amino-5-cyclopropylpyridin-3-yl)-2-((5R)-2-(3,4-difluorophenyl)-4-isobutyryl-5-methylpiperazin-1-yl)-2-oxoacetamide], in assay [1], the IC50 is > 50 nM, the 90% effect concentration (IC90) was > 125 nM and the “Hap1 MTAP intact/deleted ratio” value is “C (an IC50 ratio of less than 15 fold)”. Further, the IC50 in assay [2] is > 50 nM. In addition, the IC50 in assay [3] is > 1000 nM.
Take `Cc1cccc([C@H]2CN(C(=O)C3(C)CC3)[C@H](C)CN2C(=O)C(=O)Nc2cnc(N)c(C)c2)c1` [Compound 40, N-(6-amino-5-methylpyridin-3-yl)-2-((2S,5R)-5-methyl-4-(1-methylcyclopropanecarbonyl)-2-(m-tolyl)piperazin-1-yl)-2-oxoacetamide]: in assay [1], the IC50 fell in the range of 5 to 50 nM, the IC90 is > 125 nM and the “Hap1 MTAP intact/deleted ratio” value is on record as “C (an IC50 ratio of less than 15 fold)”. Besides, in assay [2], the IC50 is > 50 nM. Moreover, in assay [3], the IC50 was < 100 nM.
As to `CC(C)C(=O)N1C[C@@H](c2ccc(F)cc2)N(C(=O)C(=O)Nc2cnc(N)c(C3CC3)c2)C[C@@H]1C` [Compound 115, N-(6-amino-5-cyclopropyl-3-pyridyl)-2-[(2R,5S)-2-(4-fluorophenyl)-5-methyl-4-(2-methylpropanoyl)piperazin-1-yl]-2-oxo-acetamide], the IC50 in assay [1] is > 50 nM; in assay [2], > 50 nM; in assay [3] it was > 1000 nM. Further, the IC90 in assay [1] was > 125 nM. Moreover, the “Hap1 MTAP intact/deleted ratio” value in assay [1] is “C (an IC50 ratio of less than 15 fold)”.
As to `C[C@@H]1CN(C(=O)C(=O)Nc2cnc(N)c(C3CC3)c2)[C@@H](c2ccc(F)c(F)c2)CN1C(=O)C1(C(F)(F)F)CC1` [Compound 22], in assay [1], the IC50 lay in the range of 5 to 50 nM, the IC90 lay in the range of 75 to 125 nM and the “Hap1 MTAP intact/deleted ratio” value was “B (an IC50 ratio greater than or equal to 15 fold but lower than 30 fold)”. Moreover, the IC50 in assay [2] is > 50 nM. The IC50 in assay [3] was < 100 nM.
